Experimental data reported in article doi:10.1101/2021.06.10.447714v2 (bioRxiv, 2021).

What was measured:
Format in all cases: biochemical
[1] = molecular target: T1, insulin degrading enzyme (IDE) (Homo sapiens, UniProt P14735); assay: SDS-PAGE assay for ghrelin proteolysis by IDE; conditions: EDTA added to the enzyme pre-mixture, 50 mM Tris pH 7.3, 37 °C
[2] = molecular target: T1, insulin degrading enzyme (IDE); assay: Identification of IDE-mediated cleavage sites by HPLC and MALDI-TOF; conditions: HPLC (C-18) and MALDI-TOF; 50 mM Tris pH 7.3, 37 °C; three runs
[3] = molecular target: T1, insulin degrading enzyme (IDE); assay: Circular dichroism analysis of insulin degradation by IDE; conditions: CD at 222 nm and LC, substrate:enzyme ratio 100:1, 37 °C

O=C(O)CN(CCN(CC(=O)O)CC(=O)O)CC(=O)O [EDTA, ethylenediaminetetraacetate]
inhibition of IDE-mediated ghrelin proteolysis [1]: inhibited

CCCCCCCC(=O)OC[C@H](NC(=O)[C@H](CO)NC(=O)CN)C(=O)N[C@@H](Cc1ccccc1)C(=O)N[C@@H](CC(C)C)C(=O)N[C@@H](CO)C(=O)N1CCC[C@H]1C(=O)N[C@@H](CCC(=O)O)C(=O)N[C@@H](Cc1cnc[nH]1)C(=O)N[C@@H](CCC(N)=O)C(=O)N[C@@H](CCCNC(=N)N)C(=O)N[C@H](C(=O)N[C@@H](CCC(N)=O)C(=O)N[C@@H](CCC(N)=O)C(=O)N[C@@H](CCCNC(=N)N)C(=O)N[C@@H](CCCCN)C(=O)N[C@@H](CCC(=O)O)C(=O)N[C@@H](CO)C(=O)N[C@@H](CCCCN)C(=O)N[C@@H](CCCCN)C(=O)N1CCC[C@H]1C(=O)N1CCC[C@H]1C(=O)N[C@@H](C)C(=O)N[C@@H](CCCCN)C(=O)N[C@@H](CC(C)C)C(=O)N[C@@H](CCC(N)=O)C(=O)N1CCC[C@H]1C(=O)N[C@@H](CCCNC(=N)N)C(=O)O)C(C)C [ghrelin]
IDE-mediated cleavage sites (initial) [2]: Q13/ Q14, Q14/R15 and possibly Q10/R11

insulin: established IDE substrate, used in CD experiments
insulin degradation by IDE in 30% TFE [3]: does not degrade
